Measured values published in patent US8026281B2, “Treating metabolic syndrome with fenofibrate” (Lupin Atlantis Holdings, S.A., priority 2004, dated 2011).

How the values were obtained:
[1] = system: subjects with hypertriglyceridemia and metabolic syndrome; assay: Phase III placebo-controlled study of 130 mg fenofibrate, with and without food: prevalence of metabolic syndrome; conditions: for prevalence of metabolic syndrome at end of treatment: 130 mg daily
Description: Objectives: A primary outcome variable was the difference in the prevalence of metabolic syndrome between the group treated with 130 mg of fenofibrate (“the treatment group”) versus the placebo group (“the placebo”). A related outcome variable included the effect of food on fenofibrate efficacy.
Methodology: This was a multicenter, prospective, double-blind, double-dummy, randomized, placebo-controlled, parallel group study of a micronized formulation of fenofibrate at a single daily dose of 130 mg. Subjects took prescription or over-the-counter lipid lowering medications or dietary supplements known to alter lipid levels or other aspects of the lipid profile until week 6 (visit 1). At week 6, subjects were instructed to follow the therapeutic lifestyle changes diet, in accordance with the Food and Drug Administration guidelines for clinical evaluations of lipid-altering agents.
Also at week 6, qualifying subjects were stratified by triglyceride level and randomized in a double-blind fashion to one of three groups, the first two of which constituted the treatment group and the third group constituted the placebo: A) 1 fenofibrate capsule (130 mg) with food and 1 placebo capsule without food; B) 1 fenofibrate capsule (130 mg) without food (three hours after a meal) and 1 placebo capsule with food; and C) placebo, 1 placebo capsule with food and 1 placebo capsule without food. […] One capsule was taken with the subjects' evening meal and a second capsule was taken three hours post-meal. The first dosing occurred on the first evening after visit 4. A lipid profile was measured at every visit, and other measurements were taken regularly throughout the study.
Treatment duration was eight weeks.

[2] = cited from earlier work
high-risk patients = conditions: particularly those with diabetes and insulin resistance; cited from earlier work

CC(C)OC(=O)C(C)(C)Oc1ccc(C(=O)c2ccc(Cl)cc2)cc1 [fenofibrate, 2-[4-(4-chlorobenzoyl)phenoxy]-2-methyl-propanoic acid, 1-methylethyl ester]
safety and efficacy conclusion ([1]; fenofibrate formulation 130 mg, eight weeks): safe and efficacious | food effect ([1]; fenofibrate formulation 130 mg, with food versus without food): does not exhibit a food effect | prevalence of metabolic syndrome at end of treatment ([1]; fenofibrate with food group, eight weeks, reduced from 96.3% prevalence): 74.1% | prevalence of metabolic syndrome at end of treatment ([1]; fenofibrate without food group (three hours after a meal), eight weeks, reduced from 97.6% prevalence): 66.7% | decrease in number of subjects having three or more metabolic syndrome criteria ([1]; treatment group (fenofibrate 130 mg once daily, with or without food), eight-week treatment, placebo 12%, chi-square p-value=0.0416): more than 25% | prevalence of metabolic syndrome at end of treatment ([1]; whole treatment group, eight weeks, reduced from 96.9% prevalence, placebo 98.0% to 86.0%): 70.8%

CC(C)(Oc1ccc(C(=O)c2ccc(Cl)cc2)cc1)C(=O)O [fenofibric acid]
mean concentration in the plasma ([2]; dose of 300 mg per day): ~15000 ng/mL | time of maximum concentration in the plasma after ingestion of the medicinal product ([2]; on average): five | half-life for elimination from the plasma ([2]; plasma): ~20 h

Cc1ccc(C)c(OCCCC(C)(C)C(=O)O)c1 [gemfibrozil]
risk for major cardiovascular events (high-risk patients): reduced the risk for major cardiovascular events
